Source: publication PMC8151276, “An Integrated Approach toward NanoBRET Tracers for Analysis of GPCR Ligand Engagement” (Molecules, 2021)

Biological target: T1, CHRM4 (Homo sapiens, UniProt P08173)
T1 construct: purchased Promega (in-house HiBiT-GPCR construct library, NanoBRET)
T1 sequence (P08173 1-479): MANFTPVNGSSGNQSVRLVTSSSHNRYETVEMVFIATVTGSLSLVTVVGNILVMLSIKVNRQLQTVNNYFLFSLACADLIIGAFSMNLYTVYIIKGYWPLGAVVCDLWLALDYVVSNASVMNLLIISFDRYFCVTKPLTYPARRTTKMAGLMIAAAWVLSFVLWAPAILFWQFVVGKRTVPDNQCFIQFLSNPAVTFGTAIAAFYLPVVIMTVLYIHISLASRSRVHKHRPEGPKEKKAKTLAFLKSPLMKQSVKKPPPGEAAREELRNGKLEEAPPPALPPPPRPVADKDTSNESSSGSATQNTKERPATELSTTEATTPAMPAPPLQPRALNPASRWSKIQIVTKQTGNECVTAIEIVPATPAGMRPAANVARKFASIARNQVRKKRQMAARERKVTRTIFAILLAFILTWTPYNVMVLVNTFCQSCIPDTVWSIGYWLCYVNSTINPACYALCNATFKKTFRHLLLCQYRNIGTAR
Experiment: NanoBRET screen HiBiT-CHRM4 in HEK293
Assay type: binding
Procedure: Each tracer candidate was screened across the entire library of HiBiT-GPCR constructs using NanoBRET as the detection modality. As depicted in Figure 4A, the specificity of interactions was evaluated through decrease in BRET due to competitive displacement of a bound tracer by excess parental compound. Each tracer was analyzed for binding to each HiBiT-GPCR fusion in the absence and in the presence of competing parental compound. Briefly, HEK293 cells were transfected with HiBiT-GPCR constructs diluted into promoterless DNA to reduce expression and maximize translocation to the cell surface. Each tracer candidate was then screened at concentrations of 1 μM and 0.1 μM across cells expressing these fusions. Cells were treated for 1.5 h with tracer either alone or in the presence of 20 μM competing parental compound (i.e., control). BRET was measured upon addition of purified LgBiT and subsequent complementation with HiBiT genetically fused to a GPCR. The specificity of interactions was assessed through a decrease in BRET signal due to competitive displacement of the bound tracer. To further gauge the robustness of these interactions, the fold response over the control (i.e., BRETtracer/BRETcontrol) was calculated. We chose a 1.5-fold response, which translates to ≥7-fold signal over noise as the minimal threshold required to score an interaction as positive.
HiBiT-GPCR DNA constructs were diluted in 10 mM Tris pH 8 to a final concentration of 0.01 μg/μL, arrayed in 96-well plates and stored at −20 °C. For transfection, HEK293 cells were suspended in Opti-MEM (without phenol red) supplemented with 2% fetal bovine serum (Seradigm) and 100 units/mL penicillin–streptomycin (Gibco) at a final concentration of 220,000 cells/mL and dispensed into white 96-well plates at 90 μL/well. Subsequent transfections and screens were carried using an Agilent Bravo Automated Liquid Handling Platform. First, the 96-well HiBiT DNA arrays were diluted 25-fold in Opti-MEM (without serum or phenol red) to a final concentration of 0.0004 μg/μL and 20 μL of the diluted DNAs were transferred into new 96-well plates. Next, promoterless carrier DNA (1 μg/μL) was diluted 25-fold (0.04 μg/μL) and then dispensed into the diluted arrays at 20 μL/well. Following brief mixing, Viafect transfection reagent (Promega) diluted 16-fold into Opti-MEM was dispensed into the plates at 40 μL/well. After mixing by pipetting, plates were incubated for 10 min on the pipetting station deck. The DNA-transfection reagent complexes were then added to plates containing cells. To facilitate the screen, 10 μL of DNA-transfection reagent complexes were added in duplicates to the top 4 and bottom 4 rows, resulting in two identical 48-well arrays per plate. Plates with transfected cells were incubated for 18–20 h at 37 °C/5% CO2. A screen of each tracer across the entire library using two different concentrations requires duplicate plates of transfected cells. Depending on the number of tracers being screened, transfections can be scaled up using the same ratios. The next day, for each tracer, four 20× screening solutions in tracer dilution buffer (Promega) were prepared: two duplicates at final concentration of 20 μM and two duplicates at a final concentration of 2 μM. […] The four resulting solutions were diluted 4-fold in Opti-MEM without serum or phenol red to generate 5× solutions (5 µM and 0.5 µM tracer +/− 100 μM competing compound). To screen the library, a BioTek MultiFlo FX liquid dispenser was used to dispense 22.5 µL of tracer solution to the top 4 rows and 22.5 µL tracer + competing compound solution to the 4 bottom rows. Plates were briefly mixed on an orbital shaker and incubated for 1.5 h at room temperature. […] Plates were briefly mixed on an orbital shaker and incubated for 15 min to allow complementation.

Structure (SMILES) | NanoBRET Fold Response (CHRM4, tracer 0.1μM) | NanoBRET Fold Response (CHRM4, tracer 1μM) | other results
CN1CCN(C2=Nc3cc(Cl)ccc3Nc3ccc(CNC(=O)CCOCCOCCOCCOCCNC(=O)CCc4ccc5n4[B-](F)(F)[N+]4=C(c6ccc[nH]6)C=CC4=C5)cc32)CC1 [Clozapine-b-2-NB590] |  |  | NanoBRET Fold Response (CHRM4, 0.1μM tracer): 1.48; NanoBRET Fold Response (CHRM4, 1μM tracer): 2.78
CN(C)CCC=C1c2ccccc2CCc2ccc(C(=O)NCCNC(=O)CCOCCOCCOCCOCCNC(=O)CCc3ccc4n3[B-](F)(F)[N+]3=C(c5ccc[nH]5)C=CC3=C4)cc21 [Amitriptyline-b-2-NB590] |  |  | NanoBRET Fold Response (tracer at 0.1μM, listed as amitriptyline-b-2-NB590): 3.79; NanoBRET Fold Response (tracer at 1μM, listed as amitriptyline-b-2-NB590): 1.75
CCOC(=O)c1cc(C#N)c(N2CCC(C(=O)NS(=O)(=O)Cc3ccccc3/C=C/C(=O)NCCNC(=O)CCc3ccc4n3[B-](F)(F)[N+]3=C(c5ccc[nH]5)C=CC3=C4)CC2)nc1C [AZD1283-1-NB590] |  |  | NanoBRET Fold Response (CHRM4, 0.1μM): 0.97; NanoBRET Fold Response (CHRM4, 1μM): 1.06
CC(C)N(CC[C@H](c1ccccc1)c1cc(CCNC(=O)CCOCCOCCOCCOCCNC(=O)CCc2ccc3n2[B-](F)(F)[N+]2=C(c4ccc[nH]4)C=CC2=C3)ccc1O)C(C)C [Tolterodine-2-NB590] | 2.75 | 1.53 | 
CC(C)N(CC[C@H](c1ccccc1)c1cc(CCNC(=O)c2ccc(CNC(=O)CCc3ccc4n3[B-](F)(F)[N+]3=C(c5ccc[nH]5)C=CC3=C4)cc2)ccc1O)C(C)C [Tolterodine-BZ-NB590] | 3.69 | 2.39 | 
O=C(CCOCCOCCOCCOCCNC(=O)CCc1ccc2n1[B-](F)(F)[N+]1=C(c3ccc[nH]3)C=CC1=C2)NCCCN1CCN(C2=Nc3ccccc3Oc3ccc(Cl)cc32)CC1 [Loxapine-a-2-NB590] | 1.11 | 1.18 | 
CN1CCN(C2=Nc3cc(Cl)ccc3N(CC(=O)NCCOCCOCCOCCOCCNC(=O)CCc3ccc4n3[B-](F)(F)[N+]3=C(c5ccc[nH]5)C=CC3=C4)c3ccccc32)CC1 [Clozapine-c-2-NB590] |  |  | NanoBRET Fold Response (CHRM4, 0.1μM tracer): 0.97; NanoBRET Fold Response (CHRM4, 1μM tracer): 0.98
CN(C)CCC=C1c2ccccc2CCc2ccc(C(=O)NCCNC(=O)CCOCCOCCOCCOCCNC(=O)CCc3ccc4n3[B-](F)(F)[N+]3=C(c5ccc[nH]5)C=CC3=C4)cc21 [Amitriptyline-a-2-NB590] |  |  | NanoBRET Fold Response (tracer at 1μM): 1.45
Cc1nc2n(c(=O)c1CCN1CCC(c3noc4cc(F)ccc34)CC1)CCCC2OC(=O)NCCOCCOCCOCCOCCNC(=O)CCc1ccc2n1[B-](F)(F)[N+]1=C(c3ccc[nH]3)C=CC1=C2 (stereo not shown) [Risperidone-2-NB590] | 1.10 | 1.67 | 
COc1ccc2[nH]c(-c3ccc(CNC(=O)CCOCCOCCOCCOCCNC(=O)CCc4ccc5n4[B-](F)(F)[N+]4=C(c6ccc[nH]6)C=CC4=C5)cc3)c(CCNC(C)=O)c2n1 [AzomelatoninICO9-2-NB590] |  |  | NanoBRET Fold Response (0.1μM tracer): 0.77; NanoBRET Fold Response (1μM tracer): 0.98
COc1ccccc1N1CCN(CCCCN2C(=O)c3ccc(CNC(=O)CCOCCOCCOCCOCCNC(=O)CCc4ccc5n4[B-](F)(F)[N+]4=C(c6ccc[nH]6)C=CC4=C5)cc3C2=O)CC1 [NAN-190-2-NB590] | 1.18 | 1.17 | 
O=C(CCc1ccc2n1[B-](F)(F)[N+]1=C(c3ccc[nH]3)C=CC1=C2)NCCOCCOCCNC(=O)OCCOCCN1CCN(C2=Nc3ccccc3Sc3ccccc32)CC1 [Quetiapine-a-2-NB590] | 1.65 | 2.06 | 
O=C(CCOCCOCCOCCOCCNC(=O)CCc1ccc2n1[B-](F)(F)[N+]1=C(c3ccc[nH]3)C=CC1=C2)NCCCN1CCN(C2=Nc3cc(Cl)ccc3Nc3ccccc32)CC1 [Clozapine-a-2-NB590] |  |  | NanoBRET Fold Response (CHRM4, 0.1μM tracer): 1.55; NanoBRET Fold Response (CHRM4, 1μM tracer): 1.90
N#CN=C(NCCCOc1cccc(CN2CCCCC2)c1)NCCNC(=O)CCOCCOCCOCCOCCNC(=O)CCc1ccc2n1[B-](F)(F)[N+]1=C(c3ccc[nH]3)C=CC1=C2 [Aminopotentidine-2-NB590] | 1.17 | 1.39 | 
O=C(CCc1ccc2n1[B-](F)(F)[N+]1=C(c3ccc[nH]3)C=CC1=C2)NCc1ccc(C(=O)NCCOCCOCCNCC(O)COc2cccc3ccccc23)cc1 (stereo not shown) [Propranolol-3-NB590] |  |  | NanoBRET Fold Response (CHRM4, 0.1μM): 0.96; NanoBRET Fold Response (CHRM4, 1μM): 1.05
O=C(CCc1ccc2n1[B-](F)(F)[N+]1=C(c3ccc[nH]3)C=CC1=C2)NCc1ccc(C(=O)NCCOCCC(=O)N[C@@H]2CC[C@@]3(O)[C@H]4Cc5ccc(O)c6c5[C@@]3(CCN4CC3CC3)[C@H]2O6)cc1 [Naltrexone-3-NB590] | 0.66 | 0.79 | 
COc1ccccc1N1CCN(CCCCN2C(=O)c3ccc(CNC(=O)CCOCCNC(=O)c4ccc(CNC(=O)CCc5ccc6n5[B-](F)(F)[N+]5=C(c7ccc[nH]7)C=CC5=C6)cc4)cc3C2=O)CC1 [NAN-190-3-NB590] | 1.30 | 0.66 | 
Cc1cc2c(s1)Nc1ccccc1N=C2N1CCN(CCCNC(=O)CCOCCOCCOCCOCCNC(=O)CCc2ccc3n2[B-](F)(F)[N+]2=C(c4ccc[nH]4)C=CC2=C3)CC1 [Olanzapine-a-2-NB590] | 1.07 | 1.23 | 
CCCn1c(=O)c2[nH]c(-c3ccc(OCC(=O)NCCNC(=O)CCOCCNC(=O)c4ccc(CNC(=O)CCc5ccc6n5[B-](F)(F)[N+]5=C(c7ccc[nH]7)C=CC5=C6)cc4)cc3)nc2n(CCC)c1=O [XAC-3-NB590] | 0.78 | 1.10 | 
CN(CCC=C1c2ccccc2CCc2ccccc21)C(=O)CCOCCOCCOCCOCCNC(=O)CCc1ccc2n1[B-](F)(F)[N+]1=C(c3ccc[nH]3)C=CC1=C2 [Amitriptyline-e-2-NB590] |  |  | NanoBRET Fold Response (tracer at 1μM): 1.25
COc1ccc2c(n1)c(CCNC(C)=O)cn2CCNC(=O)CCc1ccc2n1[B-](F)(F)[N+]1=C(c3ccc[nH]3)C=CC1=C2 [Azamelatonin-1-NB590] |  |  | NanoBRET Fold Response (0.1μM tracer): 0.74; NanoBRET Fold Response (1μM tracer): 0.98
